Measurements published in US8614166B2, “Herbicidal composition for tolerant or resistant cotton crops” (Bayer Intellectual Property GmbH, priority 1998, dated 2013).
Counter-ions that a name gives are not always drawn.

Experiments:
Test in all cases: Field trial in tolerant cotton, herbicidal action against weed
Type in all cases: in vivo
Datura stramonium = conditions: application in the 4-5-leaf stage, scoring 3 weeks after application
Protocol: (§1) Transgenic cotton plants with a resistance to one or more herbicides (A) together with typical weed plants were grown in the open on 2×5 m plots under natural field conditions; alternatively, weed infestation occurred naturally when the cotton plants were grown.
(§2) […] The damage to, and the development of, all aerial parts of the plants was recorded. Scoring was done on the basis of a percentage sale (100% action=all plants destroyed; 50% action=50% of the plants and green parts of the plants destroyed; 0% action=no recognizable effect=like control plot. The mean of the score values of in each case 4 plots was calculated.

Echinocloa colonum = conditions: application in the 4-5-leaf stage, scoring 3 weeks after application
Protocol: as §1, §2

Ipomoea hederacea = conditions: application in the 4-leaf stage, scoring 23 days after application
Protocol: as §1, §2

Abutilon theophrasti = conditions: dose 300 g of a.s./ha; application in the 4-5 leaf stage; scoring 27 days after application
Protocol: as §1
(§3) 2, 4, 6 and 8 weeks after the application, the herbicidal activity of the active substances or active substance mixtures was scored visually with reference to the treated plots in comparison to untreated control plots. The damage to, and the development of, all aerial parts of the plants was recorded. Scoring was done on the basis of a percentage sale (100% action=all plants destroyed; 50% action=50% of the plants and green parts of the plants destroyed; 0% action=no recognizable effect=like control plot. The mean of the score values of in each case 4 plots was calculated.

Sorghum halepense = conditions: application in the 4-leaf stage, scoring 30 days after application
Protocol: as §1, §3

CP(=O)(O)CCC(N)C(=O)O (stereo not shown) [(A1.2), glufosinate-monoammonium salt]
Herbicidal action (%) against Datura stramonium (Datura stramonium; dose 450 g of a.s./ha): 75% | Herbicidal action (%) against Datura stramonium (Datura stramonium; dose 600 g of a.s./ha): 90% | Herbicidal action (%) against Datura stramonium (Datura stramonium; dose 1000 g of a.s./ha): 100% | Herbicidal action (%) against Echinocloa colonum (Echinocloa colonum; dose 450 g of a.s./ha): 0% | Herbicidal action (%) against Echinocloa colonum (Echinocloa colonum; dose 600 g of a.s./ha): 15% | Herbicidal action (%) against Echinocloa colonum (Echinocloa colonum; dose 1000 g of a.s./ha): 30% | Herbicidal action (%) against Ipomoea hederacea (Ipomoea hederacea; dose 400 g of a.s./ha): 43% | Herbicidal action (%) against Ipomoea hederacea (Ipomoea hederacea; dose 600 g of a.s./ha): 75% | Herbicidal action (%) against Abutilon theophrasti (Abutilon theophrasti): 30% | Herbicidal action (%) against Sorghum halepense (Sorghum halepense; dose 300 g of a.s./ha): 15% | Herbicidal action (%) against Sorghum halepense (Sorghum halepense; dose 500 g of a.s./ha): 53%

COCc1cnc(C2=NC(C)(C(C)C)C(=O)N2)c(C(=O)O)c1 (stereo not shown) [(A3.5), imazamox]
Herbicidal action (%) against Ipomoea hederacea (Ipomoea hederacea; dose 35 g of a.s./ha): 42%

CN(C)C(=O)Nc1cccc(C(F)(F)F)c1 [(B1.2), N,N-dimethyl-N′-[3-(trifluoromethyl)phenyl]urea]
Herbicidal action (%) against Ipomoea hederacea (Ipomoea hederacea; dose 1120 g of a.s./ha): 37%

CCc1cccc(C)c1N(C(=O)CCl)C(C)COC (stereo not shown) [(B1.9), 2-chloro-N-(2-ethyl-6-methylphenyl)-N-(2-methoxy-1-methylethyl)acetamide]
Herbicidal action (%) against Datura stramonium (Datura stramonium; dose 930 g of a.s./ha): 0% | Herbicidal action (%) against Echinocloa colonum (Echinocloa colonum; dose 930 g of a.s./ha): 88%

CCC(CC)Nc1c([N+](=O)[O-])cc(C)c(C)c1[N+](=O)[O-] [(B1.12), N-(1-ethylpropyl)-2,6-dinitro-3,4-xylidine]
Herbicidal action (%) against Ipomoea hederacea (Ipomoea hederacea; dose 925 g of a.s./ha): 42%

COc1cc(OC)nc(Sc2cccc(Cl)c2C(=O)[O-])n1.[Na+] [(B2.4), sodium 2-chloro-6-(4,6-dimethoxypyrimidin-2-ylthio)benzoate]
Herbicidal action (%) against Ipomoea hederacea (Ipomoea hederacea; dose 105 g of a.s./ha): 42%

CCCC(=NOCC)C1=C(O)CC(C2CCCSC2)CC1=O (stereo not shown) [(B4.2), 2-(1-ethoxyiminobutyl)-3-hydroxy-5-thian-3-ylcyclohex-2-enone]
Herbicidal action (%) against Sorghum halepense (Sorghum halepense; dose 125 g of a.s./ha): 58%

N#Cc1cc(Br)c(O)c(Br)c1 [(B5.1), 3,5-dibromo-4-hydroxybenzonitrile]
Herbicidal action (%) against Ipomoea hederacea (Ipomoea hederacea; dose 560 g of a.s./ha): 32%
